{
  "source": "PubChem BioAssay AID2060489",
  "about": "(Molecular Pharmacology Branch, DTP, NCI, 2025)",
  "system": "922993-354-T-J3-PDC complex spheroids, viability",
  "test": "Anticancer human tumor 922993-354-T-J3-PDC patient-derived endometrial carcinoma cell line growth inhibition [GQUAD]",
  "settings": "for pIC50: curve of first compound; for viability, T/C: stronger effect = lower value",
  "in_short": "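Tumor cells were grown as complex spheroids with HUVEC endothelial cells and mesenchymal stem cells as stroma. G-quadruplex stabilizers were combined with targeted agents over half-log dilutions from near the clinical Cmax, or from 10 microM.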",
  "key": {"[1]": {"settings": "second compound 0.0316 µM, first compound 0.0316 µM"}, "[2]": {"settings": "second compound 0.0316 µM, first compound 0.316 µM"}, "[3]": {"settings": "second compound 0.1 µM, first compound 0.0316 µM"}, "[4]": {"settings": "second compound 0.1 µM, first compound 0.316 µM"}, "[5]": {"settings": "second compound 0.316 µM, first compound 0.0316 µM"}, "[6]": {"settings": "second compound 0.316 µM, first compound 0.316 µM"}, "[7]": {"settings": "second compound 1 µM, first compound 0.0316 µM"}, "[8]": {"settings": "second compound 1 µM, first compound 0.316 µM"}, "[9]": {"settings": "second compound 3.16 µM, first compound 0.0316 µM"}, "[10]": {"settings": "second compound 3.16 µM, first compound 0.316 µM"}, "[11]": {"settings": "second compound 10 µM, first compound 0.0316 µM"}, "[12]": {"settings": "second compound 10 µM, first compound 0.316 µM"}},
  "note": "pIC50: −log10 of the molar value.",
  "data": [
    {"compound": "CC[C@@]1(O)C(=O)OCc2c1cc1n(c2=O)Cc2cc3c(CN(C)C)c(O)ccc3nc2-1", "note": "+ Cc1[nH]c2ccc(F)cc2c1-c1nc2c3cccnc3c3ncccc3c2[nH]1;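 note: spheroids exposed to compounds for seven days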;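 for viability, T/C: 100% = DMSO vehicle control viability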", "values": [
      {"measurement": "pIC50", "setting": "second compound 0.0316 µM", "value": "< 6.50"},
      {"measurement": "pIC50", "setting": "second compound 0.1 µM", "value": "< 6.50"},
      {"measurement": "pIC50", "setting": "second compound 0.316 µM", "value": "< 6.50"},
      {"measurement": "pIC50", "setting": "second compound 1 µM", "value": 6.51},
      {"measurement": "pIC50", "setting": "second compound 3.16 µM", "value": "< 6.50"},
      {"measurement": "pIC50", "setting": "second compound 10 µM", "value": 6.55},
      {"measurement": "viability, T/C", "setting": "second compound 0.0316 µM, first compound 0.000999 µM", "value": 91.8, "unit": "%"},
      {"measurement": "viability, T/C", "setting": "second compound 0.0316 µM, first compound 0.00316 µM", "value": 95.9, "unit": "%"},
      {"measurement": "viability, T/C", "setting": "second compound 0.0316 µM, first compound 0.00999 µM", "value": 109, "unit": "%"},
      {"measurement": "viability, T/C", "setting": "[1]", "value": 105, "unit": "%"},
      {"measurement": "viability, T/C", "setting": "second compound 0.0316 µM, first compound 0.0999 µM", "value": 82.4, "unit": "%"},
      {"measurement": "viability, T/C", "setting": "[2]", "value": 57.1, "unit": "%"},
      {"measurement": "viability, T/C", "setting": "second compound 0.1 µM, first compound 0.000999 µM", "value": 94, "unit": "%"},
      {"measurement": "viability, T/C", "setting": "second compound 0.1 µM, first compound 0.00316 µM", "value": 98.1, "unit": "%"},
      {"measurement": "viability, T/C", "setting": "second compound 0.1 µM, first compound 0.00999 µM", "value": 79.3, "unit": "%"},
      {"measurement": "viability, T/C", "setting": "[3]", "value": 104, "unit": "%"},
      {"measurement": "viability, T/C", "setting": "second compound 0.1 µM, first compound 0.0999 µM", "value": 77, "unit": "%"},
      {"measurement": "viability, T/C", "setting": "[4]", "value": 55.6, "unit": "%"},
      {"measurement": "viability, T/C", "setting": "second compound 0.316 µM, first compound 0.000999 µM", "value": 125, "unit": "%"},
      {"measurement": "viability, T/C", "setting": "second compound 0.316 µM, first compound 0.00316 µM", "value": 84.3, "unit": "%"},
      {"measurement": "viability, T/C", "setting": "second compound 0.316 µM, first compound 0.00999 µM", "value": 103, "unit": "%"},
      {"measurement": "viability, T/C", "setting": "[5]", "value": 92.1, "unit": "%"},
      {"measurement": "viability, T/C", "setting": "second compound 0.316 µM, first compound 0.0999 µM", "value": 97.5, "unit": "%"},
      {"measurement": "viability, T/C", "setting": "[6]", "value": 52.4, "unit": "%"},
      {"measurement": "viability, T/C", "setting": "second compound 1 µM, first compound 0.000999 µM", "value": 97.1, "unit": "%"},
      {"measurement": "viability, T/C", "setting": "second compound 1 µM, first compound 0.00316 µM", "value": 106, "unit": "%"},
      {"measurement": "viability, T/C", "setting": "second compound 1 µM, first compound 0.00999 µM", "value": 89.8, "unit": "%"},
      {"measurement": "viability, T/C", "setting": "[7]", "value": 104, "unit": "%"},
      {"measurement": "viability, T/C", "setting": "second compound 1 µM, first compound 0.0999 µM", "value": 90.6, "unit": "%"},
      {"measurement": "viability, T/C", "setting": "[8]", "value": 48.7, "unit": "%"},
      {"measurement": "viability, T/C", "setting": "second compound 3.16 µM, first compound 0.000999 µM", "value": 74.5, "unit": "%"},
      {"measurement": "viability, T/C", "setting": "second compound 3.16 µM, first compound 0.00316 µM", "value": 108, "unit": "%"},
      {"measurement": "viability, T/C", "setting": "second compound 3.16 µM, first compound 0.00999 µM", "value": 93.1, "unit": "%"},
      {"measurement": "viability, T/C", "setting": "[9]", "value": 93.3, "unit": "%"},
      {"measurement": "viability, T/C", "setting": "second compound 3.16 µM, first compound 0.0999 µM", "value": 89.5, "unit": "%"},
      {"measurement": "viability, T/C", "setting": "[10]", "value": 67.4, "unit": "%"},
      {"measurement": "viability, T/C", "setting": "second compound 10 µM, first compound 0.000999 µM", "value": 134, "unit": "%"},
      {"measurement": "viability, T/C", "setting": "second compound 10 µM, first compound 0.00316 µM", "value": 91.1, "unit": "%"},
      {"measurement": "viability, T/C", "setting": "second compound 10 µM, first compound 0.00999 µM", "value": 109, "unit": "%"},
      {"measurement": "viability, T/C", "setting": "[11]", "value": 97.2, "unit": "%"},
      {"measurement": "viability, T/C", "setting": "second compound 10 µM, first compound 0.0999 µM", "value": 74.6, "unit": "%"},
      {"measurement": "viability, T/C", "setting": "[12]", "value": 45.2, "unit": "%"}
    ]},
    {"compound": "CCCS(=O)(=O)Nc1ccc(F)c(C(=O)c2c[nH]c3ncc(-c4ccc(Cl)cc4)cc23)c1F", "note": "+ CN(C)c1ccc(Nc2c3ccc(NC(=O)CCN4CCCC4)cc3nc3cc(NC(=O)CCN4CCCC4)ccc23)cc1", "values": [
      {"measurement": "pIC50", "setting": "second compound 0.0316 µM", "value": "< 5.00"},
      {"measurement": "pIC50", "setting": "second compound 0.1 µM", "value": 5.07},
      {"measurement": "pIC50", "setting": "second compound 0.316 µM", "value": "< 5.00"},
      {"measurement": "pIC50", "setting": "second compound 1 µM", "value": "< 5.00"},
      {"measurement": "pIC50", "setting": "second compound 3.16 µM", "value": "< 5.00"},
      {"measurement": "pIC50", "setting": "second compound 10 µM", "value": "< 5.00"},
      {"measurement": "viability, T/C", "setting": "[1]", "value": 91.6, "unit": "%"},
      {"measurement": "viability, T/C", "setting": "second compound 0.0316 µM, first compound 0.1 µM", "value": 94.2, "unit": "%"},
      {"measurement": "viability, T/C", "setting": "[2]", "value": 103, "unit": "%"},
      {"measurement": "viability, T/C", "setting": "second compound 0.0316 µM, first compound 1 µM", "value": 66.5, "unit": "%"},
      {"measurement": "viability, T/C", "setting": "second compound 0.0316 µM, first compound 3.16 µM", "value": 72.2, "unit": "%"},
      {"measurement": "viability, T/C", "setting": "second compound 0.0316 µM, first compound 10 µM", "value": 60.6, "unit": "%"},
      {"measurement": "viability, T/C", "setting": "[3]", "value": 78.2, "unit": "%"},
      {"measurement": "viability, T/C", "setting": "second compound 0.1 µM, first compound 0.1 µM", "value": 83.9, "unit": "%"},
      {"measurement": "viability, T/C", "setting": "[4]", "value": 95, "unit": "%"},
      {"measurement": "viability, T/C", "setting": "second compound 0.1 µM, first compound 1 µM", "value": 80.3, "unit": "%"},
      {"measurement": "viability, T/C", "setting": "second compound 0.1 µM, first compound 3.16 µM", "value": 68.1, "unit": "%"},
      {"measurement": "viability, T/C", "setting": "second compound 0.1 µM, first compound 10 µM", "value": 46.9, "unit": "%"},
      {"measurement": "viability, T/C", "setting": "[5]", "value": 105, "unit": "%"},
      {"measurement": "viability, T/C", "setting": "second compound 0.316 µM, first compound 0.1 µM", "value": 78.5, "unit": "%"},
      {"measurement": "viability, T/C", "setting": "[6]", "value": 89.6, "unit": "%"},
      {"measurement": "viability, T/C", "setting": "second compound 0.316 µM, first compound 1 µM", "value": 94.7, "unit": "%"},
      {"measurement": "viability, T/C", "setting": "second compound 0.316 µM, first compound 3.16 µM", "value": 83.1, "unit": "%"},
      {"measurement": "viability, T/C", "setting": "second compound 0.316 µM, first compound 10 µM", "value": 68.1, "unit": "%"},
      {"measurement": "viability, T/C", "setting": "[7]", "value": 82.5, "unit": "%"},
      {"measurement": "viability, T/C", "setting": "second compound 1 µM, first compound 0.1 µM", "value": 86, "unit": "%"},
      {"measurement": "viability, T/C", "setting": "[8]", "value": 83.3, "unit": "%"},
      {"measurement": "viability, T/C", "setting": "second compound 1 µM, first compound 1 µM", "value": 80.2, "unit": "%"},
      {"measurement": "viability, T/C", "setting": "second compound 1 µM, first compound 3.16 µM", "value": 79.3, "unit": "%"},
      {"measurement": "viability, T/C", "setting": "second compound 1 µM, first compound 10 µM", "value": 60.8, "unit": "%"},
      {"measurement": "viability, T/C", "setting": "[9]", "value": 97.5, "unit": "%"},
      {"measurement": "viability, T/C", "setting": "second compound 3.16 µM, first compound 0.1 µM", "value": 101, "unit": "%"},
      {"measurement": "viability, T/C", "setting": "[10]", "value": 108, "unit": "%"},
      {"measurement": "viability, T/C", "setting": "second compound 3.16 µM, first compound 1 µM", "value": 87.8, "unit": "%"},
      {"measurement": "viability, T/C", "setting": "second compound 3.16 µM, first compound 3.16 µM", "value": 84.9, "unit": "%"},
      {"measurement": "viability, T/C", "setting": "second compound 3.16 µM, first compound 10 µM", "value": 53.8, "unit": "%"},
      {"measurement": "viability, T/C", "setting": "[11]", "value": 103, "unit": "%"},
      {"measurement": "viability, T/C", "setting": "second compound 10 µM, first compound 0.1 µM", "value": 111, "unit": "%"},
      {"measurement": "viability, T/C", "setting": "[12]", "value": 131, "unit": "%"},
      {"measurement": "viability, T/C", "setting": "second compound 10 µM, first compound 1 µM", "value": 122, "unit": "%"},
      {"measurement": "viability, T/C", "setting": "second compound 10 µM, first compound 3.16 µM", "value": 115, "unit": "%"},
      {"measurement": "viability, T/C", "setting": "second compound 10 µM, first compound 10 µM", "value": 78.4, "unit": "%"}
    ]}
  ]
}
